Test results published in patent US20240075087A1, “COMPOSITIONS AND METHODS COMPRISING HEMP EXTRACT FOR THE TREATMENT OF ANIMALS IN NEED” (Portland Technology Holdings LLC, priority 2021, published 2024).
In brackets after ≈: the same amount, converted by molar mass.

Legend:
Assay type in all cases: cell-based, canine
[1] = test system: 17-71 cells; experiment: Trypan blue exclusion assay, 17-71; conditions: 48 hours, vehicle control 3±1%
Procedure: The trypan blue exclusion assay is performed on canine primary dermal fibroblasts (CDF) because of the slow rate of proliferation and low metabolic activity of these normal canine cells, precluding productive MTT assays. The effects of CBD treatments are compared with the results obtained on the 17-71, CMT12 and D17 cell lines for comparative purposes. For the CDF cells, applied cell extracellular matrix (ABM) is applied overnight to 24-well tissue culture-treated plates (Applied Biological Materials [ABM], Richmond, BC, Canada). For all cell lines, cells are plated at a density of 5×10^3 cells per well and incubated until 60% confluent before treatment with methanol vehicle control, 3.75, 7.5, and 15 μg/mL of CBD to cells for 48 hours. Cells are then trypsinized, collected and centrifuged at 1900 g for 10 minutes. With the exception of the 17-71 cell line, cells are detached with Accumax (Invitrogen, Carlsbad, California). The cell pellet is resuspended in 0.1% trypan blue (Sigma Aldrich, St Louis, Missouri) in PBS solution, loaded on a Cell Countess disposable cell counting slide with automatic counting of all positively stained cells in the Countess II Cell Counter under identical settings for each cell line (Invitrogen; ThermoFisher Scientific, Carlsbad, California) using the same parameters for each cell line. All treatments are performed in triplicate and the percent of viable cells are averaged.

[2] = test system: HMPOS osteosarcoma cell line; experiment: 48 hours MTT proliferation assay, HMPOS; conditions: pure compound
Procedure: 3-(4,5-Dimethylthaizol-2-yl)-2,5-diphenyltetrazolium bromide (MTT) assays are performed on all previously described cell lines; CMT12, HMPOS, D17, Abrams and 17-71. […] Cells are treated with vehicle (methanol or ethanol/DMSO mix) or various concentrations of the CBD, CBDA or CBD-rich hemp extract ranging from 0.42 to 20 μg/mL in serial dilution for 48 hours. MTT assays are performed after 48 hours of treatment by adding 20 μL of MTT dye ([…] filtered 5 mg/mL in phosphate-buffered saline [PBS]) to each well and incubating at 37° C. in 5% CO2 for 2 hours. The media is then aspirated, washed once with 200 μL of PBS and then solubilized in 200 μL of ethanol. Immediate analysis of the optical density of each well is performed using a spectrophotometric plate reader (Epoch; Biotek, Winooski, Vermont) at a wavelength of 570 nm as previously described (e.g., Vega-Avila E and Pugsley M K, An overview of colorimetric assay methods used to assess survival or proliferation of mammalian cells, Proc West Pharmacol Soc., 2011, 54, pp. 10-14 which is incorporated herein by reference in its entirety). The percent proliferating cells of control for each concentration is averaged and reported as a mean+/—SD from triplicate wells over three experiments.
For CBD, CBDA and hemp extract concentrations needed to obtain a 50% inhibition of cell proliferation (IC50) are then calculated across experiments by Probit analysis using XLFit5 software (IDBS, Guildford, United Kingdom) for reporting the results for each cell line.

[3] = test system: 17-71, CMT12 and D17 cell lines; experiment: Time course Western blot of signalling pathways, autophagy and caspase 3
Procedure: Cells are plated on 100 mm tissue culture-treated plates and incubated overnight in complete medium until 60% confluency is reached. […] Cells are harvested and lysed at each time point for control and CBD treated cells using mammalian lysis buffer (25 mM Tris, 100 mM NaCl, 1 mM EDTA, 1% Triton X-100, pH 7.4), and then centrifuged for 5 minutes at 12 000 g at 4° C. The supernatant is collected and the protein concentration is determined using the Bradford assay (Coomassie-dye; ThermoFisher Scientific Pierce, Waltham, Massachusetts). […] Membranes are incubated overnight in primary antibody solutions at a dilution of 1:1000 in TBST on a rocking platform at 4° C. Primary antibodies confirmed as cross reactive with canine cells or tissues include mouse extracellular regulated kinase (ERK) (R&D Biosciences, Boston, Massachusetts); rabbit anti-protein kinase B (AKT), Ser473 phosphorylated-AKT, stress-activated protein kinase/jun-amino-terminal kinase (SAPK/JNK), Thr183/Tyr185 phosphorylated-SAPK/JNK, mammalian target of rapamycin (mTOR), Ser2448 phosphorylated-mTOR, anti-Thr202/Tyr204 phosphorylated p44/42 MAPK (ERK1/2), anti-p38, anti-phosphorylated p38, anti-p62 and anti-LC3 A/B (Cell Signalling Technology, Danvers, Massachusetts)(e.g., Syrjä P, Anwar T, Jokinen T, Kyöstilä K, Jäderlund K H, Cozzi F, Rohdin C, Hahn K, Wohlsein P, Baumgärtner W, Henke D, Oevermann A, Sukura A, Leeb T, Lohi H, and Eskelinen E L, Basal Autophagy Is Altered in Lagotto Romagnolo Dogs with an ATG4D Mutation, Vet Pathol, 2017 November, 54(6), pp. 953-963, doi: 10.1177/0300985817712793; Gordon I K, Ye F, and Kent M, Evaluation of the mammalian target of rapamycin pathway and the effect of rapamycin on target expression and cellular proliferation in osteosarcoma cells from dogs, Amer J Vet Res, 2008, 69, pp. 1079-1084; Ikari A, Atomi K, Kinjo Y, and Sugatani J, Magnesium deprivation inhibits a MEK-ERK cascade and cell proliferation in epithelial Madin-Darby canine kidney cells, Life Sci, 2010, 86, pp. 766-773; and Levine C B, Bayle J, Biourge V, and Wakshlag J J, Effects and synergy of feed ingredients on canine neoplastic cell proliferation, BMC Vet Res, 2016, 12(1), 159, which are incorporated herein by reference in their entirety). Membranes are washed three times with TBST and incubated at room temperature for 1 hour in the corresponding secondary anti-rabbit IgG or anti-mouse IgG horseradish peroxidase-conjugated antibody at a dilution of 1:2000 (Cell Signalling Technology, Danvers, MA). Membranes are washed three times with TBST and visualized with a chemi-luminescent reagent (Clarity Western ECL Substrate; Bio-Rad, Hercules, California). Digital images are captured using an imaging system (Biospectrum 410; UVP, Upland, California or FluorChem E; Cell Biosciences, San Jose, California). Each blot is performed twice from two different experiments to confirm findings.

SMILES: C=C(C)[C@@H]1CCC(C)=C[C@H]1c1c(O)cc(CCCCC)cc1O [CBD, cannabidiol]
- percent trypan blue positive cells ([1]; 3.75 μg/mL CBD): 7±4%
- percent trypan blue positive cells ([1]; 7.5 μg/mL CBD): 27±8%
- percent trypan blue positive cells ([1]; 15 μg/mL CBD): 55%±6%
- IC50 ([2]; Canis lupus familiaris, read-out: IC50 (Probit)): 3.6 µg/mL (≈ 11.4 µM)
- concentrations that significantly diminished proliferation vs vehicle control ([2]; P<0.05): ≥ 5 µg/mL
- caspase 3 activation ([3]; 10 μg/mL CBD, 2, 4, 8 hours): activation of caspase 3 which can also be seen at 2 hours in the 17-71 cells, but is not evident until hour 8 in the CMT12 and D17 CBD treated cells
- AKT, phosphorylated-AKT, mTOR and phosphorylated-mTOR immunoblots ([3]; 10 μg/mL CBD, 2, 4 and 8 hours): no depression or increased intensity of the signal over time
- LC3II proportion of LC3 protein ([3]; 10 μg/mL CBD, 2 to 8 hours, all three cell lines): increase in the LC3II proportion of LC3 protein
- ERK and JNK phosphorylation ([3]; 10 μg/mL CBD, 8 hour time-course vs methanol vehicle): repeatable increases in both ERK and JNK phosphorylation across all three cell lines
- autophagy cargo carrier protein p62 (western blotting) ([3]; 10 μg/mL CBD, over 8 hours): marked decrease
- p38 phosphorylation and activation ([3]; CBD treatment): minimal influence on the p38 phosphorylation and activation
- cleaved caspase 3 (17 Kda) immunoblotting ([3]; after 8 and 16 hours of CBD treatment vs methanol vehicle control): cleaved caspase across all cell lines at both time points
